Assay results reported in ChEMBL document CHEMBL5233288, “Ginkgo Biflavones Cause p53 Wild-Type Dependent Cell Death in a Transcription-Independent Manner of p53” (J Nat Prod, 2023).
Activity calls are given as the source filed them. No cut-off for these calls is given here.

Columns and labels:
[1] = Toxicity against BALB/c nude mouse xenografted with human HCT-116 cells assessed as body weight loss at 30 mg/kg, ip administered once every 3 days for 12 days and measured every 2 days; format: organism-based; conditions: in vivo, 288 h, time 12 day
[2] = tested on: HCT-116; experiment: Antitumor activity against human HCT-116 cells xenografted in BALB/c nude mouse assessed as reduction in tumor volume at 30 mg/kg, ip administered once every 3 days for 12 days and measured every 2 days; format: functional, organism-based; conditions: time 12.0 day

Compound: O=c1[nH]cc(F)c(=O)[nH]1 [FLUOROURACIL]
- Activity [1]: Toxic
- Activity [2]: Active
